Laboratory results reported in US5663162A, “Cephem derivatives” (priority 1993, dated 1997).
≈ marks a conversion by molar mass, not a printed value.

Tests used:
[1] = tested on: C. freundii GN346/16; assay: Antibacterial activity test, MIC by two-fold dilution method; format: cell-based; conditions: Citrobacter freundii; C. freundii GN346/16; 10^6 CFU/ml, 35° C., 18 to 20 hours; read-out: Minimum Inhibition Concentration
Procedure: (§1) The measurement was carried out in the following manner: 10^6 CFU/ml of a bacterium to be tested was inoculated on a Medium N for disc susceptibility test (manufactured by Nissui Pharmaceutical Co., Ltd.), and cultivated at 35° C. for 18 to 20 hours.

[2] = tested on: E. cloacae G-0008; assay: as above; format: cell-based; conditions: Enterobacter cloacae, G0008; E. cloacae G-0008; 10^6 CFU/ml, 35° C., 18 to 20 hours; read-out: Minimum Inhibition Concentration
Procedure: as §1

[3] = tested on: E. coli NIHJ JC-2; assay: as above; format: cell-based; conditions: Escherichia coli, NIHJJC2; E. coli NIHJ JC-2; 10^6 CFU/ml, 35° C., 18 to 20 hours; read-out: Minimum Inhibition Concentration
Procedure: as §1

[4] = tested on: K. pneumoniae PC1602; assay: as above; format: cell-based; conditions: Klebsiella pneumoniae; K. pneumoniae PC1602; 10^6 CFU/ml, 35° C., 18 to 20 hours; read-out: Minimum Inhibition Concentration
Procedure: as §1

[5] = tested on: M. morganii 1510/S-1; assay: as above; format: cell-based; conditions: Morganella morganii, 1510/S1; M. morganii 1510/S-1; 10^6 CFU/ml, 35° C., 18 to 20 hours; read-out: Minimum Inhibition Concentration
Procedure: as §1

[6] = tested on: P. aeruginosa E-2; assay: as above; format: cell-based; conditions: Pseudomonas aeruginosa, E2, read-out: Minimum Inhibition Concentration
Procedure: as §1

[7] = tested on: P. aeruginosa GN10362; assay: as above; format: cell-based; conditions: Pseudomonas aeruginosa, GN10362, read-out: Minimum Inhibition Concentration
Procedure: as §1

[8] = tested on: P. vulgaris GN76; assay: as above; format: cell-based; conditions: Proteus vulgaris, GN76, read-out: Minimum Inhibition Concentration
Procedure: as §1

[9] = tested on: S. Aureus 209P JC-1; assay: as above; format: cell-based; conditions: Staphylococcus aureus; S. Aureus 209P JC-1; 10^6 CFU/ml, 35° C., 18 to 20 hours; read-out: Minimum Inhibition Concentration
Procedure: as §1

[10] = tested on: S. epidermidis ATCC14990; assay: as above; format: cell-based; conditions: Staphylococcus epidermidis; S. epidermidis ATCC14990; 10^6 CFU/ml, 35° C., 18 to 20 hours; read-out: Minimum Inhibition Concentration
Procedure: as §1

[11] = tested on: S. marcescens No. 1; assay: as above; format: cell-based; conditions: Serratia marcescens; S. marcescens No. 1; 10^6 CFU/ml, 35° C., 18 to 20 hours; read-out: Minimum Inhibition Concentration
Procedure: as §1

[12] = tested on: S. Aureus 126; assay: as above; format: cell-based, Staphylococcus aureus (methicillin-resistant, MRSA); conditions: Staphylococcus aureus, MRSA, read-out: Minimum Inhibition Concentration
Procedure: as §1

[13] = tested on: S. Aureus 133; assay: as above; format: cell-based, Staphylococcus aureus (methicillin-resistant, MRSA); conditions: Staphylococcus aureus, MRSA, read-out: Minimum Inhibition Concentration
Procedure: as §1

[14] = Acute toxicity test in ICR mice; format: in vivo; conditions: mouse, in vivo, iv
Procedure: (§2) 0.5 ml of a pharmaceutical solution prepared by dissolving a compound of the present invention in a physiological saline solution for injection (80 mg/ml) was injected to the caudal veins of ICR mice (4 weeks old, male, body weight: approx. 20 g). Two weeks after the administration, the mice were observed whether they were dead or not. […] Therefore, the LD50 of this compound is >2 g/kg (>40 mg/mouse).

[15] = tested on: ICR mice; assay: Acute toxicity test in ICR mice; format: in vivo
Procedure: as §2

CCO/N=C(\C(=O)N[C@@H]1C(=O)N2C(C(=O)[O-])=C(C[n+]3cc4sccn4c3CNC=O)CS[C@H]12)c1nsc(N)n1 [Example 49, (6R,7R)-7-[(Z)-2-(5-Amino-1,2,4-thiadiazol-3-yl)-2-ethoxyiminoacetamide]-3-[5-(formylamino)methylimidazo[5,1-b]thiazolium-6-yl]methyl-3-cephem-4-carboxylate]
MIC [1]: 0.05 µg/mL (≈ 0.0845 µM)
MIC [2]: 0.05 µg/mL (≈ 0.0845 µM)
MIC [3]: 0.05 µg/mL (≈ 0.0845 µM)
MIC [4]: 0.05 µg/mL (≈ 0.0845 µM)
MIC [5]: ≤ 0.025 µg/mL
MIC [6]: 1.56 µg/mL (≈ 2.64 µM)
MIC [7]: 1.56 µg/mL (≈ 2.64 µM)
MIC [8]: 0.39 µg/mL (≈ 0.659 µM)
MIC [9]: 0.78 µg/mL (≈ 1.32 µM)
MIC [10]: 0.78 µg/mL (≈ 1.32 µM)
MIC [11]: 0.1 µg/mL (≈ 0.169 µM)
MIC [12]: 6.25 µg/mL (≈ 10.6 µM)
MIC [13]: 6.25 µg/mL (≈ 10.6 µM)
LD50 at 336 h [14]: > 2000 mg/kg
survival two weeks after administration ([15]; ICR mice, 0.5 ml of 80 mg/ml solution, caudal vein, 3 cases): all (3 cases) alive
LD50 ([15]; mouse, in vivo): > 40 mg/mouse
